Measurements: paper PMC3131451 (Journal of medicinal chemistry, 2010)

Key:
PDK1 = biological target: T1, PDK1 (Homo sapiens, UniProt O15530); assay: Z'-LYTE kinase activity assay PDK1; assay type: biochemical; conditions: read-out: Kinase assay IC50 PDK1, ATP at Km
T1 sequence (O15530 1-556): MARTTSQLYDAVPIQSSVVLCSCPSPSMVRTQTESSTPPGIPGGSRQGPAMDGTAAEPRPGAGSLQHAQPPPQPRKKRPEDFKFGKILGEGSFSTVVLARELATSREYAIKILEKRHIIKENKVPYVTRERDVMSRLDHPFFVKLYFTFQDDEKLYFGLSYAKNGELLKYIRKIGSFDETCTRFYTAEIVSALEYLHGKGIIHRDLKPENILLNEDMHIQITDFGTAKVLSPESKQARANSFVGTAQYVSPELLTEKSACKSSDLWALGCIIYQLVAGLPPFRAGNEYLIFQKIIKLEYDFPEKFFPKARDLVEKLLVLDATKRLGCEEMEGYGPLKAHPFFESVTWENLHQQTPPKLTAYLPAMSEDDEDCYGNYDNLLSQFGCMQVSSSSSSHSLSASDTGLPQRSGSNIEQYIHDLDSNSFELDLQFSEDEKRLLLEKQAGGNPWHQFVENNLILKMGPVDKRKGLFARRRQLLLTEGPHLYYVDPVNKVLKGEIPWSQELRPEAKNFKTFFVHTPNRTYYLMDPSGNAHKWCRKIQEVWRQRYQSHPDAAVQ

mTOR (FRAP1) = mTOR (FRAP1) (Homo sapiens, UniProt P42345); assay: LanthaScreen Eu kinase binding assay mTOR; conditions: read-out: Kinase assay IC50 mTOR
mTOR (FRAP1), sequence (P42345 1360-2549 limits assumed): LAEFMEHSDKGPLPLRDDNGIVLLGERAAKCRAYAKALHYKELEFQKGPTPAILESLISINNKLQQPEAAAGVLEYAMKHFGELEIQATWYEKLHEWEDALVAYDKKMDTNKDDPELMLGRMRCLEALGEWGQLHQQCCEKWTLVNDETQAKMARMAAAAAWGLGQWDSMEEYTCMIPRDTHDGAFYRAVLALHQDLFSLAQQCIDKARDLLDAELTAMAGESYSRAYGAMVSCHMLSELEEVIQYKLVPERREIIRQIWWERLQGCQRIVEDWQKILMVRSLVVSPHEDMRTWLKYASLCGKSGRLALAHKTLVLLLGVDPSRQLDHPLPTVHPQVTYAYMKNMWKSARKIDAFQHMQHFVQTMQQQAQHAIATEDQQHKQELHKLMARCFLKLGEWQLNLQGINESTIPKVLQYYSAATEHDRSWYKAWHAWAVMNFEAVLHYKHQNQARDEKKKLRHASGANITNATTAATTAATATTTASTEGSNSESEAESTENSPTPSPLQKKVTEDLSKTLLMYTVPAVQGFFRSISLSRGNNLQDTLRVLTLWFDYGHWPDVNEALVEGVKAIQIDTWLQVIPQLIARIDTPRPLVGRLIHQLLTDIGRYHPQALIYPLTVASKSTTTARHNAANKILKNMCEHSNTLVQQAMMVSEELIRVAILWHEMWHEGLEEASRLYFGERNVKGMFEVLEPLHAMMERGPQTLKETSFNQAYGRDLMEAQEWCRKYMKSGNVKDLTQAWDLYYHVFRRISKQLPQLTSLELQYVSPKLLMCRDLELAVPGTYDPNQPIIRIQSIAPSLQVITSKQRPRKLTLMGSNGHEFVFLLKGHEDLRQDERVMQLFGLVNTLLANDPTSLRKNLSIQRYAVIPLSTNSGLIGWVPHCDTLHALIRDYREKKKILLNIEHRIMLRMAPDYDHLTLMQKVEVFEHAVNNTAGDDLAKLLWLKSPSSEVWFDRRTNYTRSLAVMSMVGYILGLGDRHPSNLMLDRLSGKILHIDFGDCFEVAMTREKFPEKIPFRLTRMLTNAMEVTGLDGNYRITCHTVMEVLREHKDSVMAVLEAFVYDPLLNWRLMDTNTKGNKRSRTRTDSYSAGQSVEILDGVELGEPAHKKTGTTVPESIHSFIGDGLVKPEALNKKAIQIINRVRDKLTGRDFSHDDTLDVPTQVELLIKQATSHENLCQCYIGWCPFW

PI3Kα (PIK3CA/PIK3R1) = PI3Kα (PIK3CA/PIK3R1) (Homo sapiens, UniProt P42336); assay: LanthaScreen Eu kinase binding assay PI3Kα; conditions: for activity in words, biochemical and cell-based assays: both in the biochemical and cell-based assays (Table 1)
PI3Kα (PIK3CA/PIK3R1), sequence (P42336 whole entry): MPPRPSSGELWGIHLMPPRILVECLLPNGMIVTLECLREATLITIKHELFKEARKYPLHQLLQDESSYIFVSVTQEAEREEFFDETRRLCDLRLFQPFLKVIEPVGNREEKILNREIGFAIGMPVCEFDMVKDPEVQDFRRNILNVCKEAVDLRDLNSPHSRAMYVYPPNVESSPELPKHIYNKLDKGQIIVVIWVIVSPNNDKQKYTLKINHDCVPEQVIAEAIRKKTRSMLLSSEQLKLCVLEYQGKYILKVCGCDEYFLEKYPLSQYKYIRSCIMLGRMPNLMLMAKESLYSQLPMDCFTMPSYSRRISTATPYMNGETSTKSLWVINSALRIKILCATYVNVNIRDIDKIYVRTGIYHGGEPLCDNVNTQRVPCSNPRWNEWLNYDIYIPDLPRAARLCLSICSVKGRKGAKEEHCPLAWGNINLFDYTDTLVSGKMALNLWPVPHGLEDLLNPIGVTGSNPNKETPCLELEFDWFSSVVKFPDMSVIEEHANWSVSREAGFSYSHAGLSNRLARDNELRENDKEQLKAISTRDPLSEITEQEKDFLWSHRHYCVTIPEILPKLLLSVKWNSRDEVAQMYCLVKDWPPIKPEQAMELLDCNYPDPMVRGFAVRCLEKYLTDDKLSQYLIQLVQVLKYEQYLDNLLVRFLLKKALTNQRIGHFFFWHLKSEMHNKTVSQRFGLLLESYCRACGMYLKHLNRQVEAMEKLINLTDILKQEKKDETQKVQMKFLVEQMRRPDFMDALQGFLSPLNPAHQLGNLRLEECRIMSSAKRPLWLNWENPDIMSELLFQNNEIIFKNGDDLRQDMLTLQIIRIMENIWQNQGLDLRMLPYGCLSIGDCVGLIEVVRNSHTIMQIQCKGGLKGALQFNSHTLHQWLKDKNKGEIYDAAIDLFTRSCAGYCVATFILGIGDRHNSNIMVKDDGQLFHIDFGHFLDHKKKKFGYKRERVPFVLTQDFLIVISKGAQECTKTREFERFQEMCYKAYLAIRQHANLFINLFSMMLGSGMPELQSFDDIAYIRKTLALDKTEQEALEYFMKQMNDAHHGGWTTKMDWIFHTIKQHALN
PI3Kα (PIK3CA/PIK3R1), sequence (P27986 whole entry partner): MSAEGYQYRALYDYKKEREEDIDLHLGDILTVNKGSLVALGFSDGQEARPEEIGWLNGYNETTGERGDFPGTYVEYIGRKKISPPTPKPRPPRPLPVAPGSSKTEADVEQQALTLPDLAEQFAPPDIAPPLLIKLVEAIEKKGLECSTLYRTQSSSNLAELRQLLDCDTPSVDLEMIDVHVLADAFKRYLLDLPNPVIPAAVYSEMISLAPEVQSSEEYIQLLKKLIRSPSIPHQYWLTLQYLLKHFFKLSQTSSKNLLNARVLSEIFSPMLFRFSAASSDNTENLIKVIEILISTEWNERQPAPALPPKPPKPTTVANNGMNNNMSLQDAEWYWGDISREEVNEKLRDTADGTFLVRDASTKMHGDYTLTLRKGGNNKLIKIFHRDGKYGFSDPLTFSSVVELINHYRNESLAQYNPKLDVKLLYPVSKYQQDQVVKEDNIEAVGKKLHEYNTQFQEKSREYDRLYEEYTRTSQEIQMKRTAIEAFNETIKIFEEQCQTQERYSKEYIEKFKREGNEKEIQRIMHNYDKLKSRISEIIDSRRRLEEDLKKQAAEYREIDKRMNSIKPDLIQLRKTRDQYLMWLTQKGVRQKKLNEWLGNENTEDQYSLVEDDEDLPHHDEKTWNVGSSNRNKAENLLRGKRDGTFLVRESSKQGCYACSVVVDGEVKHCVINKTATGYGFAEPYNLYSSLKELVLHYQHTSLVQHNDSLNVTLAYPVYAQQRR

[1] = tested on: Hela cervical carcinoma cells; assay: Anti-proliferative assay; conditions: Homo sapiens, 72 h, read-out: Cell-based Assay GI50 Hela
PI-3Kα = PI-3Kα (Homo sapiens, UniProt P42336); assay: SelectScreen Biochemical Kinase Profiling PI-3Kα; conditions: in vitro displacement assays against the PI3K isoforms
PI-3Kα, sequence (P42336 whole entry, canonical isoform): as the sequence (P42336 whole entry) above
PI-3Kα, sequence (P27986 whole entry partner, canonical isoform): as the sequence (P27986 whole entry partner) above

PRAS40 [pS183] = assay: LanthaScreen cellular assay PRAS40 [pSer183]; conditions: HEK293E, 1 h, read-out: Cell-based Assay IC50 PRAS40 [pS183]
U87 glioblastoma cells = assay: 3D culture assay, U87 spheroids; assay type: cell-based, human; conditions: 10 µM every day, total of 6 days
DNA-PK = DNA-PK (Homo sapiens, UniProt P78527); assay: Selectivity panel, kinase inhibition; assay type: biochemical
314 protein kinases = assay: Selectivity panel against 314 protein kinases; assay type: biochemical; conditions: 10 µM, preliminary selectivity panel

| Compound | IC50 (AKT [pT308]) | PI3Kα activity in words (PI3Kα (PIK3CA/PIK3R1)) | further results |
| --- | --- | --- | --- |
| 3-(pyridin-2-ylethynyl)-1H-pyrazolo[3,4-b]pyridine [Compound 21] |  |  | IC50 (PDK1): > 50 µM; IC50 (mTOR (FRAP1)): 5 µM; IC50 (PI3Kα (PIK3CA/PIK3R1); read-out: Kinase assay IC50 PI3Kα, LanthaScreen Eu kinase binding assay): 9 µM |
| Nc1ccc(C#Cc2n[nH]c3ccccc23)cc1 [Compound 6, 4-((1H-indazol-3-yl)ethynyl)aniline] | 17.1 µM |  | GI50 [1]: 3.6 µM; selectivity for α isoform over the β and γ isoforms (PI-3Kα): about 100 fold |
| C(#Cc1n[nH]c2ccccc12)c1ccccc1 [Compound 7, 3-(phenylethynyl)-1H-indazole] | > 100 µM | poor activity |  |
| Fc1cc(F)cc(C#Cc2n[nH]c3ccccc23)c1 [Compound 8, 3-((3,5-difluorophenyl)ethynyl)-1H-indazole] | > 100 µM | poor activity | IC50 (PRAS40 [pS183]): > 200 µM |
| C(#Cc1n[nH]c2ccccc12)c1ccncc1 [Compound 10, 3-(pyridin-4-ylethynyl)-1H-indazole] |  |  | U87 spheroid cell growth/proliferation (spheroid volumes) (U87 glioblastoma cells): strongly suppressed cell growth/proliferation; inhibition at 10 µM (DNA-PK): > 50%; share of 314 protein kinases showing ≥ 50% inhibition (314 protein kinases): less than 10% |
| CN(C)CC#Cc1n[nH]c2ccccc12 [Compound 11, 3-(1H-indazol-3-yl)-N,N-dimethylprop-2-yn-1-amine] | > 100 µM |  | activity in words, biochemical and cell-based assays (PI3Kα (PIK3CA/PIK3R1)): inactive |
| C(#Cc1n[nH]c2ccccc12)c1ccccn1 [Compound 12, 3-(pyridin-2-ylethynyl)-1H-indazole] | > 100 µM |  |  |
| C(#CC1CCCC1)c1n[nH]c2ccccc12 [Compound 14, 3-(cyclopentylethynyl)-1H-indazol] | > 50 µM |  | activity in words, biochemical and cell-based assays (PI3Kα (PIK3CA/PIK3R1)): inactive |
| C(#CC1CC1)c1n[nH]c2ccccc12 [Compound 15, 3-(cyclopropylethynyl)-1H-indazole] | > 50 µM |  | activity in words, biochemical and cell-based assays (PI3Kα (PIK3CA/PIK3R1)): inactive |
| Nc1ccccc1C#Cc1n[nH]c2ccccc12 [Compound 16, 2-((1H-indazol-3-yl)ethynyl)aniline] | > 100 µM |  |  |
| FC(F)(F)c1cc(C#Cc2n[nH]c3ccccc23)cc(C(F)(F)F)c1 [Compound 17, 3-((3,5-bis(trifluoromethyl)phenyl)ethynyl)-1H-indazole] | > 100 µM | poor activity |  |
| C(#Cc1n[nH]c2ccccc12)c1ccsc1 [Compound 18, 3-(thiophen-3-ylethynyl)-1H-indazole] | > 100 µM | poor activity |  |
| N#Cc1ccc(C#Cc2n[nH]c3ccccc23)cc1 [Compound 19, 4-((1H-indazol-3-yl)ethynyl)benzonitrile] | > 50 µM | poor activity |  |
| C(#Cc1n[nH]c2ncccc12)c1ccncc1 [Compound 20, 3-(pyridin-4-ylethynyl)-1H-pyrazolo[3,4-b]pyridine] |  |  | loss of PI3Kα activity versus compound 10 (PI3Kα (PIK3CA/PIK3R1); pyrazolopyridine analog compared with indazole 10): 10 fold |
